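Here, GI50 denotes the concentration required for 50% inhibition of growth. The concentration for full growth arrest is given as TGI.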
Legend:
Test in all cases: growth of human tumour cells (NCI), 384-well format
[1] = system: CAKI-1 renal
[2] = system: RPMI-8226 leukemia
[3] = system: NCI-H522 lung
[4] = system: HOP-62 NSCLC
[5] = system: KM12 colon
[6] = system: UO-31 renal
[7] = system: OVCAR-4 ovarian
[8] = system: OVCAR-3 ovarian
[9] = system: HOP-92 NSCLC
[10] = system: UACC-257 melanoma
[11] = system: NCI-H460 NSCLC
[12] = system: NCI-H226 lung
[13] = system: NCI/ADR-RES ovarian
[14] = system: SK-MEL-28 melanoma
[15] = system: PC-3 prostate
[16] = system: NCI-H322M lung
[17] = system: IGROV1 ovarian
[18] = system: LOX IMVI melanoma
[19] = system: MALME-3M melanoma
[20] = system: HCT-15 colon
[21] = system: K-562 leukemia
[22] = system: SNB-19 CNS
[23] = system: MDA-MB-231 breast
[24] = system: SF-295 CNS
[25] = system: CCRF-CEM leukemia
[26] = system: T-47D breast
[27] = system: MDA-MB-435 melanoma
[28] = system: RXF 393 renal
[29] = system: ACHN renal
[30] = system: SW-620 colon
[31] = system: MOLT-4 leukemia
[32] = system: A549 NSCLC
[33] = system: M14 melanoma
[34] = system: SF-539 CNS
[35] = system: A498 renal
[36] = system: SK-MEL-5 melanoma
[37] = system: SR leukemia
[38] = system: HS 578T breast
[39] = system: SNB-75 CNS
[40] = system: 786-0 renal
[41] = system: SK-OV-3 ovarian
[42] = system: UACC-62 melanoma
[43] = system: BT-549 breast
[44] = system: MDA-MB-468 breast
[45] = system: DU-145 prostate
[46] = system: HL-60(TB) leukemia
[47] = system: HT29 colon
[48] = system: HCC-2998 colon
[49] = system: OVCAR-8 ovarian
[50] = system: EKVX NSCLC
[51] = system: MCF7 breast
[52] = system: TK-10 renal
[53] = system: COLO 205 colon
[54] = system: SN12C renal
[55] = system: NCI-H23 lung
[56] = system: SF-268 CNS
[57] = system: OVCAR-5 ovarian

SMILES: C=CC(=O)N[C@H]1C=C(C)c2c(-c3cnc4ccccc4c3)c3c(N)ncnc3n2C1
- GI50 [1]: 3.49 µM
- TGI [1]: 21.3 µM
- GI50 [2]: 10 µM
- TGI [2]: 22.1 µM
- GI50 [3]: 0.242 µM
- TGI [3]: 9.32 µM
- GI50 [4]: 17.1 µM
- TGI [4]: 76 µM
- GI50 [5]: 18.8 µM
- TGI [5]: 36.3 µM
- GI50 [6]: 12.2 µM
- TGI [6]: > 100 µM
- GI50 [7]: 16.2 µM
- TGI [7]: 65.5 µM
- GI50 [8]: 7.32 µM
- TGI [8]: 24.9 µM
- GI50 [9]: 10.2 µM
- TGI [9]: 33.1 µM
- GI50 [10]: 18.9 µM
- TGI [10]: 48 µM
- GI50 [11]: 14.8 µM
- TGI [11]: 30 µM
- GI50 [12]: 5.39 µM
- TGI [12]: 26.3 µM
- GI50 [13]: 34.1 µM
- TGI [13]: > 100 µM
- GI50 [14]: 14.2 µM
- TGI [14]: 46.2 µM
- GI50 [15]: 34.1 µM
- TGI [15]: 98.8 µM
- GI50 [16]: 0.109 µM
- TGI [16]: 16.4 µM
- GI50 [17]: 0.683 µM
- TGI [17]: 8.36 µM
- GI50 [18]: 14.7 µM
- TGI [18]: 28.1 µM
- GI50 [19]: 11.7 µM
- TGI [19]: 24.1 µM
- GI50 [20]: 25.2 µM
- TGI [20]: 82 µM
- GI50 [21]: 23.9 µM
- TGI [21]: 80.6 µM
- GI50 [22]: 27 µM
- TGI [22]: 73.3 µM
- GI50 [23]: 13.7 µM
- TGI [23]: 35.4 µM
- GI50 [24]: 29.5 µM
- TGI [24]: > 100 µM
- GI50 [25]: 14.9 µM
- TGI [25]: 28.2 µM
- GI50 [26]: 11.5 µM
- TGI [26]: 82 µM
- GI50 [27]: 31 µM
- TGI [27]: 87 µM
- GI50 [28]: 10 µM
- TGI [28]: 27.7 µM
- GI50 [29]: 0.378 µM
- TGI [29]: 18 µM
- GI50 [30]: 28.5 µM
- TGI [30]: 61.6 µM
- GI50 [31]: 5.47 µM
- TGI [31]: 17.5 µM
- GI50 [32]: 11.1 µM
- TGI [32]: 30.2 µM
- GI50 [33]: 13.2 µM
- TGI [33]: 31.9 µM
- GI50 [34]: 15.1 µM
- TGI [34]: 29.3 µM
- GI50 [35]: 2.11 µM
- TGI [35]: 20.1 µM
- GI50 [36]: 13.2 µM
- TGI [36]: 26 µM
- GI50 [37]: 2.45 µM
- TGI [37]: 10.9 µM
- GI50 [38]: 12.8 µM
- TGI [38]: 26.4 µM
- GI50 [39]: 17.6 µM
- TGI [39]: 45.9 µM
- GI50 [40]: 12.7 µM
- TGI [40]: 28.8 µM
- GI50 [41]: 1.61 µM
- TGI [41]: 15.1 µM
- GI50 [42]: 6 µM
- TGI [42]: 18.9 µM
- GI50 [43]: 16.8 µM
- TGI [43]: 35.7 µM
- GI50 [44]: 0.0243 µM
- TGI [44]: 0.0646 µM
- GI50 [45]: 14.1 µM
- TGI [45]: 44.9 µM
- GI50 [46]: 26.7 µM
- TGI [46]: 41.6 µM
- GI50 [47]: 17.5 µM
- TGI [47]: 58.5 µM
- GI50 [48]: 19.3 µM
- TGI [48]: 35.1 µM
- GI50 [49]: 15.8 µM
- TGI [49]: 35 µM
- GI50 [50]: 0.312 µM
- TGI [50]: 25.5 µM
- GI50 [51]: 19.7 µM
- TGI [51]: > 100 µM
- GI50 [52]: 0.228 µM
- TGI [52]: 10.6 µM
- GI50 [53]: 26.2 µM
- TGI [53]: 70.4 µM
- GI50 [54]: 15.6 µM
- TGI [54]: 63.9 µM
- GI50 [55]: 18.2 µM
- TGI [55]: 40.6 µM
- GI50 [56]: 15.1 µM
- TGI [56]: 45.6 µM
- GI50 [57]: 26.2 µM
- TGI [57]: 74.1 µM
